Literature values, collected in patent US8350024B2, “Sugar derivatives and application of same” (priority 2006, dated 2013).

System: herpes simplex virus type 2
Details: conventional drug, comparison value

For `Nc1nc2c(ncn2COCCO)c(=O)[nH]1` [acyclovir], the selection index is given as “about 800”.
